Test results published in ChEMBL document CHEMBL1141544, “Synthesis of N-pyrimidinyl-2-phenoxyacetamides as adenosine A2A receptor antagonists” (Bioorg Med Chem Lett, 2008).
≈ marks a conversion by molar mass, not a printed value.

What was measured:
Homo sapiens = species: Homo sapiens; assay: Selectivity of Ki for human adenosine A2A receptor over Ki for human adenosine A1 receptor
Adenosine receptor A2a [1] = biological target: T1, Adenosine receptor A2a (Homo sapiens, UniProt P29274); assay: Displacement of [3H]ZM-241385 from human adenosine A2A receptor expressed in HEK293 cells; type: cell-based
T1 sequence (P29274 whole entry): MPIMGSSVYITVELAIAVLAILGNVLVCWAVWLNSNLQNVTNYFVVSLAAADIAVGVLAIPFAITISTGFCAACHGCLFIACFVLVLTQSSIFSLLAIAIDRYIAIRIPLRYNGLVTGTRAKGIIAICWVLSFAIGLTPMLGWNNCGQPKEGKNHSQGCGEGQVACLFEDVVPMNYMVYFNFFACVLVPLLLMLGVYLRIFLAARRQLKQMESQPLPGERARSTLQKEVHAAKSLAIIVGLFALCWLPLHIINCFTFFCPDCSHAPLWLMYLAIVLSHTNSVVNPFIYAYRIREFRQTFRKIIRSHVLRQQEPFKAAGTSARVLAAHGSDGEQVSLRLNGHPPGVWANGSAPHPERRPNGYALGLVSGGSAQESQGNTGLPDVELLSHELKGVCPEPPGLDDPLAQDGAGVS

Adenosine receptor A1 [2] = biological target: T2, Adenosine receptor A1 (Homo sapiens, UniProt P30542); assay: Displacement of [3H]DPCPX from human adenosine A1 receptor expressed in HEK293 cells; type: cell-based
T2 sequence (P30542 whole entry): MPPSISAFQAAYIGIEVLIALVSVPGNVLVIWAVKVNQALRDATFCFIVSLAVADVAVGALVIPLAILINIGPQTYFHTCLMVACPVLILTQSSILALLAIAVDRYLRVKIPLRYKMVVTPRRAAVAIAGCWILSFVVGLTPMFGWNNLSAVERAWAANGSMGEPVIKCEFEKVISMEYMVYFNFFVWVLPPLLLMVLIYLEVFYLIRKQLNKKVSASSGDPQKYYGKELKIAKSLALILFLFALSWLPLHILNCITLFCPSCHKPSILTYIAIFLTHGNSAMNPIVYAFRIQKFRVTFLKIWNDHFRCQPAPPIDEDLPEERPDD

Adenosine receptor A2a [3] = biological target: T1, Adenosine receptor A2a; assay: Binding affinity at adenosine A2A receptor
[4] = Solubility at pH 5; type: physicochemical; conditions: buffer
[5] = Half life in rat; type: ADME, organism-based; conditions: in vivo
Rattus norvegicus = assay: Inhibition of haloperidol-induced catalepsy in orally dosed rat; type: functional; conditions: po, read-out: MED
Adenosine receptor A2a [6] = biological target: Adenosine receptor A2a (Rattus norvegicus, UniProt P30543); assay: Inhibition of rat adenosine A2A receptor
Chain of Adenosine receptor A2a (Rattus norvegicus, UniProt P30543) (P30543 whole entry): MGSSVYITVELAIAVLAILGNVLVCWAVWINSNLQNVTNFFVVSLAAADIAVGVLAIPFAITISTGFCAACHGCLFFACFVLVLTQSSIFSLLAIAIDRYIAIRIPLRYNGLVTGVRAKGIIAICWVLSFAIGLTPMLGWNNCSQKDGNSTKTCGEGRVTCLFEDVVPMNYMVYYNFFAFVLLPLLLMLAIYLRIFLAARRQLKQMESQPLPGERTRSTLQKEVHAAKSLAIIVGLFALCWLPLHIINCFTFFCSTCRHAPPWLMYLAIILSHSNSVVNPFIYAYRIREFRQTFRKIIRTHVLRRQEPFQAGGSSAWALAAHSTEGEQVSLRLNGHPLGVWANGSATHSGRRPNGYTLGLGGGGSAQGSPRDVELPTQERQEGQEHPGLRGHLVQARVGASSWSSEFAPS

[7] = Drug level in rat brain after 4 hrs; type: ADME, tissue-based; conditions: read-out: Drug uptake
Cytochrome P450 2D6 = Cytochrome P450 2D6 (Homo sapiens, UniProt P10635); assay: Inhibition of CYP2D6; type: ADME
Chain of Cytochrome P450 2D6 (P10635 whole entry): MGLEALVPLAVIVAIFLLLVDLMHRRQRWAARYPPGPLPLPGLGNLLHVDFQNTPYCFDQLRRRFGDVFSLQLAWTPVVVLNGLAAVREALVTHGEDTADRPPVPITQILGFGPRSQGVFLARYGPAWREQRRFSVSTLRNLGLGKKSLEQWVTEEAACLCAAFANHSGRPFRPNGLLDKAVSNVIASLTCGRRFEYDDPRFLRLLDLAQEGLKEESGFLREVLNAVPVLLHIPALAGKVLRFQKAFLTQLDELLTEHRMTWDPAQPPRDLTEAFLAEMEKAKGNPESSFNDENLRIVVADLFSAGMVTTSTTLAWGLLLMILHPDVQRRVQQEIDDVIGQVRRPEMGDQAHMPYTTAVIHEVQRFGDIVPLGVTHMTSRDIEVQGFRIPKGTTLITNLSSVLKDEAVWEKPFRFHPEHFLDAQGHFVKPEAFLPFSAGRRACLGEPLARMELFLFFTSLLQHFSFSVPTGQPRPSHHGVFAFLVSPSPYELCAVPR

[8] = Plasma clearance in rat; type: ADME, organism-based
[9] = Volume of distribution in rat; type: ADME, organism-based; conditions: in vivo
[10] = Oral bioavailability in rat; type: ADME, organism-based; conditions: in vivo
Cytochrome P450 3A4 = Cytochrome P450 3A4 (Homo sapiens, UniProt P08684); assay: Inhibition of CYP3A4; type: ADME
Chain of Cytochrome P450 3A4 (P08684 whole entry): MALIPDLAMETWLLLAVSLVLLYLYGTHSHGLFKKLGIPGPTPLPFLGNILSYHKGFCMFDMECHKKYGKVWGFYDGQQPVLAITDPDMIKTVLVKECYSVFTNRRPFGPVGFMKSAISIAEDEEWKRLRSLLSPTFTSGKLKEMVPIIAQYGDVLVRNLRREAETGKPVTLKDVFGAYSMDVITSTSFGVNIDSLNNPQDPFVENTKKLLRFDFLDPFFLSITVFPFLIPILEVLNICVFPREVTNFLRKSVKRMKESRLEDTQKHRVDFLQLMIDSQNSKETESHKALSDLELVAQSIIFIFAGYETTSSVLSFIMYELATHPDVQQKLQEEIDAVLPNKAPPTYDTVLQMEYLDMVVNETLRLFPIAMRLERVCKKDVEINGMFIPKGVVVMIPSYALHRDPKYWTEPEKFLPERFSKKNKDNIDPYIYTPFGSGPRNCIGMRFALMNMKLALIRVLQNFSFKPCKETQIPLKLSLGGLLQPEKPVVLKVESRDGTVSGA

Adenosine receptor A1 [11] = biological target: T2, Adenosine receptor A1; assay: Binding affinity at adenosine A1 receptor
[12] = biological target: Voltage-gated inwardly rectifying potassium channel KCNH2 (Homo sapiens, UniProt Q12809); assay: Binding affinity at human ERG
Chain of Voltage-gated inwardly rectifying potassium channel KCNH2 (Q12809 whole entry): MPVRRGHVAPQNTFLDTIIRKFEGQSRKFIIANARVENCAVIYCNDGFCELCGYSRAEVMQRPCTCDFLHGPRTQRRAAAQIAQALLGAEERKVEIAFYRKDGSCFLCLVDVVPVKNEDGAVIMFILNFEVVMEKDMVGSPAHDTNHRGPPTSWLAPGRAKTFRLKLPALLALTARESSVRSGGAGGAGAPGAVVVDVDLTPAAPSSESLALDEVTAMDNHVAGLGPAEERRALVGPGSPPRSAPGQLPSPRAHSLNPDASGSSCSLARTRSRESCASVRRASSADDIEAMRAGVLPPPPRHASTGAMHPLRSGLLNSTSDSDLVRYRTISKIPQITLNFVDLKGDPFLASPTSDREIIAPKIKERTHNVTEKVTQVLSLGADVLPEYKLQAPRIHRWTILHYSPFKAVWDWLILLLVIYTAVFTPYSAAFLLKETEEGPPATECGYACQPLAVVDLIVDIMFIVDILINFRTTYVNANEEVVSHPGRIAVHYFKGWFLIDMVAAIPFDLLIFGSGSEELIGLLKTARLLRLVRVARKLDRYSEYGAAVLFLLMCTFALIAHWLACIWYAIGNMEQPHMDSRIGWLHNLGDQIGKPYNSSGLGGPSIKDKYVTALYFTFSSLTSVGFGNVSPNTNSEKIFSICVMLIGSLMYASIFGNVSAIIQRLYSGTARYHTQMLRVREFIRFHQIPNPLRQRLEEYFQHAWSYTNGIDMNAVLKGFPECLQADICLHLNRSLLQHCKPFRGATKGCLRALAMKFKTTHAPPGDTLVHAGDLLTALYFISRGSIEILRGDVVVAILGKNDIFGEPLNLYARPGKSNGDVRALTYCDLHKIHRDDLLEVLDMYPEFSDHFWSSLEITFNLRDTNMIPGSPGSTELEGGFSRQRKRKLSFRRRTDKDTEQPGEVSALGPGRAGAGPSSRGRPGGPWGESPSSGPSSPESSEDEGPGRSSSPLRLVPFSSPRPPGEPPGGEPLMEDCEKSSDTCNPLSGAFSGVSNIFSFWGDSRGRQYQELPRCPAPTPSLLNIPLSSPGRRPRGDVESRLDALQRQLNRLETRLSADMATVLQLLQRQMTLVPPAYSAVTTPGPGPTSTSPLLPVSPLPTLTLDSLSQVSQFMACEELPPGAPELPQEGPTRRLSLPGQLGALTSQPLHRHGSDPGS

| SMILES | Ki (Adenosine receptor A2a [1]) | Ki (Adenosine receptor A1 [2]) | also measured |
| --- | --- | --- | --- |
| Cc1cc(C)n(-c2cc(NC(=O)COc3cccc(CN4CCOCC4)c3)nc(-c3ccc(C)o3)n2)n1 | 1.2 nM | 600 nM | Ratio Ki (Homo sapiens): 500 |
| Cc1cc(C)n(-c2cc(NC(=O)COc3cccc(C#N)c3)nc(-c3ccc(C)o3)n2)n1 | > 10000 nM | 25000 nM | – |
| Cc1ccc(-c2nc(NC(=O)COc3cccc(Cl)c3)cc(-c3nccs3)n2)o1 | 14 nM | 1500 nM | – |
| COc1cc(CN(C)C)ccc1OCC(=O)Nc1cc(-n2nc(C)cc2C)nc(-c2ccc(C)o2)n1 | 0.2 nM | 100 nM | – |
| Cc1ccc(-c2nc(NC(=O)COc3ccc(F)cc3)cc(-c3nccs3)n2)o1 | > 10000 nM | 1300 nM | – |
| CCN(C)Cc1cccc(OCC(=O)Nc2cc(-n3nc(C)cc3C)nc(-c3ccc(C)o3)n2)c1 | 0.3 nM | 68 nM | Ratio Ki (Homo sapiens): 100; Ki (Adenosine receptor A2a [3]): 0.3 nM |
| CC(=O)Nc1cc(-n2cccn2)nc(-c2ccco2)n1 | – | – | Ratio Ki (Homo sapiens): 17; Ki (Adenosine receptor A2a [3]): 0.6 nM |
| Cc1ccc(-c2nc(NC(=O)COc3cccc(C#N)c3)cc(-c3nccs3)n2)o1 | 6.8 nM | 4300 nM | – |
| Cc1cc(C)n(-c2cc(NC(=O)COc3ccccc3CN(C)C)nc(-c3ccc(C)o3)n2)n1 | 1 nM | 270 nM | – |
| Cc1ccc(-c2nc(NC(=O)COc3cccc(F)c3)cc(-c3nccs3)n2)o1 | 11 nM | 2200 nM | – |
| Cc1cc(C)n(-c2cc(NC(=O)COc3cccc(CN(C)C)c3)nc(-c3ccc(C)o3)n2)n1 | 0.4 nM | 60 nM | solubility [4]: 210 µg/mL (≈ 456 µM); half-life [5]: 48 min; minimal effective dose (Rattus norvegicus): 10 mg/kg; Ki (Adenosine receptor A2a [6]): 9.4 nM; concentration at 4 h [7]: 360 ng/g; IC50 (Cytochrome P450 2D6): > 6000 nM; clearance [8]: 330 mL/min/kg; Vd [9]: 20 L/kg; bioavailability [10]: 19%; IC50 (Cytochrome P450 3A4): > 6000 nM |
| Cc1ccc(OCC(=O)Nc2cc(-n3nc(C)cc3C)nc(-c3ccc(C)o3)n2)c(CN(C)C)c1 | 1 nM | 270 nM | – |
| N#Cc1cccc(OCC(=O)Nc2cc(-c3nccs3)nc(-c3ccccn3)n2)c1 | 1.8 nM | 87 nM | – |
| CCNCc1cccc(OCC(=O)Nc2cc(-n3nc(C)cc3C)nc(-c3ccc(C)o3)n2)c1 | 0.3 nM | 68 nM | Ratio Ki (Homo sapiens): 100; Ki (Adenosine receptor A2a [3]): 0.3 nM |
| O=C(COc1cccc(F)c1)Nc1cc(-c2nccs2)nc(-c2ccccn2)n1 | 3.6 nM | 180 nM | – |
| COc1cc(OCC(=O)Nc2cc(-n3nc(C)cc3C)nc(-c3ccc(C)o3)n2)ccc1CN(C)C | 0.3 nM | 150 nM | – |
| Cc1cc(OCC(=O)Nc2cc(-n3nc(C)cc3C)nc(-c3ccc(C)o3)n2)cc(C)n1 | 0.7 nM | 740 nM | IC50 (Cytochrome P450 2D6): 50 nM; IC50 (Cytochrome P450 3A4): 1100 nM |

| SMILES | Ki (Adenosine receptor A2a [1]) | Ki (Adenosine receptor A1 [2]) | also measured |
| --- | --- | --- | --- |
| Cc1cc(C)n(-c2cc(NC(=O)COc3cccc(CN)c3)nc(-c3ccc(C)o3)n2)n1 | 0.7 nM | 73 nM | Ratio Ki (Homo sapiens): 100; Ki (Adenosine receptor A2a [3]): 0.7 nM |
| Cc1cc(C)n(-c2cc(NC(=O)COc3cc(F)cc(CN(C)C)c3)nc(-c3ccc(C)o3)n2)n1 | 0.5 nM | 140 nM | – |
| Cc1cc(C)n(-c2cc(NC(=O)COc3ccc(CN(C)C)cc3)nc(-c3ccc(C)o3)n2)n1 | 0.3 nM | 120 nM | – |
| Cc1ccc(-c2nc(NC(=O)COc3ccccc3F)cc(-c3nccs3)n2)o1 | 7.5 nM | 650 nM | Ratio Ki (Homo sapiens): 87 |
| COc1ccc(OCC(=O)Nc2cc(-n3nc(C)cc3C)nc(-c3ccc(C)o3)n2)c(CN(C)C)c1 | 0.9 nM | 200 nM | IC50 (Cytochrome P450 3A4): 1600 nM |
| COc1cccc(CN(C)C)c1OCC(=O)Nc1cc(-n2nc(C)cc2C)nc(-c2ccc(C)o2)n1 | 5.7 nM | 1400 nM | – |
| Cc1cc(C)n(-c2cc(NC(=O)COc3cccc(CCN4CCOCC4)c3)nc(-c3ccc(C)o3)n2)n1 | 2.3 nM | 540 nM | – |
| Cc1ccc(OCC(=O)Nc2cc(-c3nccs3)nc(-c3ccc(C)o3)n2)cc1 | 36 nM | 2100 nM | – |
| Cc1cc(C)n(-c2cc(NC(=O)COc3cccc(F)c3)nc(-c3ccc(C)o3)n2)n1 | 3.7 nM | 9700 nM | solubility [4]: 80 µg/mL (≈ 190 µM); Ratio Ki (Homo sapiens): 2600 |
| Cc1cc(C)n(-c2cc(NC(=O)COc3cc(F)cc(CN4CCCC4)c3)nc(-c3ccc(C)o3)n2)n1 | 0.5 nM | 120 nM | – |
| Cc1cc(C)n(-c2cc(NC(=O)COc3cccc(CCN(C)C)c3)nc(-c3ccc(C)o3)n2)n1 | 0.5 nM | 78 nM | – |
| Cc1ccc(-c2nc(NC(=O)CCc3ccccc3F)cc(-c3nccs3)n2)o1 | – | – | Ki (Adenosine receptor A1 [11]): 410 nM; Ratio Ki (Homo sapiens): 26; Ki (Adenosine receptor A2a [3]): 16 nM |
| Cc1ccc(-c2nc(NC(=O)COc3ccccc3)cc(-c3nccs3)n2)o1 | 7.4 nM | 1100 nM | – |
| Cc1cc(C)nc(OCC(=O)Nc2cc(-n3nc(C)cc3C)nc(-c3ccc(C)o3)n2)n1 | 3.7 nM | 95 nM | – |
| Cc1cc(C)n(-c2cc(NC(=O)COc3ccccc3CCN3CCOCC3)nc(-c3ccc(C)o3)n2)n1 | 1.2 nM | 1200 nM | Ki [12]: 180 nM |
| Cc1cc(C)n(-c2cc(NC(=O)COc3cc(F)cc(CN4CCOCC4)c3)nc(-c3ccc(C)o3)n2)n1 | 1.4 nM | 480 nM | – |
